Results on three compounds are retold here after patent US9895309B2, “Selenosugars for skin tissue repair” (SELENO THERAPEUTICS PTY LTD., priority 2014, dated 2018).

Data set [1] relates to db/db mice. Kind of data set: Tissue histology of diabetic wounds. To be noted: diabetic wounds vs vehicle. The format is in vivo, mouse. The source says:
FIGS. 3 to 12 illustrate comparative tissue histology for (a) the wildtype and (b) db/db mouse models, both (i) non-treated mice, (ii) mice treated for 5 days and (iii) mice treated for 10 days. The figures also illustrate plots against time in days for the following wound parameters for (i), (ii) and (iii) (where * indicates p<0.05, ** indicates p<0.01, *** indicates p<0.001);
(§1) In the experimental testing according to the present invention, pairs of circular incision wounds on the backs of wildtype C57/BL6 and db^−/db^− mice (n=12 each) were treated daily with a selenosugar according to the current invention or vehicle, topically for 10 days. Wound closure, vascular perfusion and tissue histology were assessed.

For data set [2], the system named is db/db mice. Kind of data set: Wound closure, circular incision wounds, diabetic db/db mice, topical treatment. The format is in vivo, mouse. As to the method:
FIG. 1 illustrates wound closure observed in the db/db mouse models topically treated with a 1 mM saline solution of 1,4-anhydro-4-seleno-D-talitol (selenosugar) (b) and a non-selenium control sugar, 1,4-anydro-D-talitol (a).
as §1

The subject of data set [3] is db/db mice. Kind of data set: Vascular perfusion of wounds by Doppler imaging, diabetic mice. To be noted: diabetic mouse wounds, p<0.05, FIG. 2. The format is in vivo.
Description: FIG. 2 illustrates vascular perfusion measured by Doppler imaging and corresponding to the selenosugar treated wound (1) and the untreated control wound (2) of the db^−/db^− mouse model of FIG. 1 (where * indicates p, 0.05, and n=6). Doppler imaging is a non-invasive technique used to evaluate blood flow velocity with red blood cells as the moving target;
as §1

Data set [4] relates to indomethacin-induced stomach ulcers in mice. To be noted: Chakraborty et al; cited from earlier work.
The next data set has as its system wildtype mice. Kind of data set: Wound healing comparison of selenosugar with DHSred at the same dose, wildtype mice. To be noted: for Wound healing after topical application / Scar tissue formed during wound healing: same dose; for Wound healing after topical application / Pus formation in wound: FIG. 16; for Scar tissue formed during wound healing: FIG. 17; for Pus formation in wound: topical. It is filed as in vivo, mouse. The source says:
FIG. 15 is a plot illustrating the performance of a selenosugar according to the present invention (1,4-anhydro-4-seleno-D-talitol) (8) against a similar water-soluble selenium compound that is not sugar derived (DHSred) (10) in non-diabetic (wt) mice over time. FIG. 15a illustrates % wound closure in terms of the wound size and FIG. 15b illustrates blood flow intensity (Doppler measurement) in arbitrary units where ** indicates p<0.01, *** p<0.001 and **** p<0.0001 and N=6;
FIG. 16 illustrates a wound treated with a selenosugar according to the present invention (ii) and a wound treated with DHSred (i) at the same dose.
FIG. 17 illustrates typical differences in scar tissue that forms during wound healing in wildtype mice having a wound treated with a selenosugar according to the present invention (ii) and a wound treated with DHSred (i) at the same dose.

For another data set, the system named is wildtype C57/BL6 mice. Kind of data set: Wound closure, circular incision wounds, wildtype mice, topical treatment. The format is in vivo, mouse. As to the method: as §1
[5] abbreviates: wildtype mice, listed as DHSred.

As to “1,4-anhydro-4-seleno-D-talitol [Formula II]”, the “IL-6 level (tissue histology)” value in the data set with db/db mice [1] (FIG. 4, p<0.05) was “decreased”. Further, the “Elastin level (tissue histology)” value in the data set with db/db mice [1] (FIG. 6, p<0.01) is on record as “increased”. The “MCP-1 level (tissue histology)” value with db/db mice [1] (FIG. 9, p<0.001) is given as “decreased”. Also, in the data set with db/db mice [1] (FIG. 10, p<0.001), the “MPO level (tissue histology)” value was “decreased”. For the same compound, in the data set with db/db mice [1] (FIG. 12, p<0.01), the “vWF level (tissue histology)” value is on record as “decreased”. Further, the results for the “Wound closure relative to control db/db mice” value in the data set with db/db mice [2] (day 4) and in the data set on db/db mice [2] (day 10) were 3 fold and 2 fold, respectively. For the same compound, the Wound closure in the data set on db/db mice [2] (day 4, p<0.001 vs control db/db mice) was 32%; in the data set with db/db mice [2] (day 10, p<0.0001 vs control db/db mice) it was 83%. Moreover, in the data set with db/db mice [3], the “Vascular perfusion (Doppler imaging)” value is “improved vascular perfusion”.
Take `O[C@@H]1C[Se]C[C@H]1O` (racemic) [Formula III, DL-trans-3,4-dihydroxy-1-selenolane]: in data set [4], the “Healing of indomethacin-induced stomach ulcers” value is reported as “accelerate healing”. Also, in the data set on wildtype mice (wildtype mice), the “Wound healing after topical application” value is “reduced wound healing”, the “Scar tissue formed during wound healing” value was “pronounced scar tissue build up” and the “Pus formation in wound” value is listed as “observable pus formation”. Further, in the data set on wildtype mice (setting [5]), the “Wound healing after topical application” value was “inferior healing” and the “Pus formation in wound” value is reported as “development of pus”.
Take `OC[C@@H](O)[C@@H]1[Se]C[C@@H](O)[C@H]1O` [Formula II, 1,4-anhydro-4-seleno-D-talitol]: in the data set on wildtype mice (FIG. 16 and histology), the “Inflammatory response during tissue repair” value is on record as “anti-inflammatory response”. In addition, the “Tissue repair during wound healing, formula II vs formula III” value in the data set with wildtype mice (wildtype mice, FIG. 15) is given as “superior”. For the same compound, in the data set with wildtype mice (wildtype mice), the “Wound healing after topical application” value is “improved wound closure and healing”; the “Scar tissue formed during wound healing” value is “significantly less scar tissue”. The “Wound closure relative to controls” value in the data set with wildtype C57/BL6 mice (day 4) is recorded as 2 fold. This compound also showed a Wound closure with wildtype C57/BL6 mice (day 4, daily topical treatment, p<0.05 vs controls) of 32%. Moreover, in the data set with wildtype C57/BL6 mice (day 10, daily topical treatment, p<0.01 vs controls), the Wound closure is on record as 82%.
